Results taken from patent publication US20090175882A1, “METHODS AND COMPOSITIONS FOR TREATING HYPERALGESIA” (IRM LLC, priority 2006, published 2009).
pEC50: −log10 of the molar value. “Also recorded” adds a separate entry of the source. Each block holds one compound with its values, some of them ahead of it.

Columns and labels:
[1] = tested on: TRPV1, TRPV2, TRPV3, TRPV4, or TRPM8; assay: Effect on other thermoTRPs (summary statement); assay type: cell-based
Excerpt: TRPA1 inhibitors that can be employed in the practice of the present invention include compounds that interferes with the expression, modification, regulation or activation of TRPA1, or compounds that down-regulates one or more of the normal biological activities of TRPA1 (e.g., its ion channel). […] Various TRPA1-specific antagonists can be used in the instant invention. Some of these TRPA1-specific inhibitors are identified by the present inventors, as described in the Examples below. These compounds can be obtained commercially or are otherwise described in the art. One such compound is Compound 18, (Z)-4-(4-chlorophynyl)-3-methylbut-3-en-2-oxime. This compound can be obtained commercially from Maybridge (Cornwall, UK). Another example is Compound 40, N,N′-Bis-(2-hydroxybenzyl)-2,5-diamino-2,5-dimethylhexane, which has been described in U.S. Pat. No. 4,129,556. […] Thus, these two compounds can be readily used to treat or alleviate mechanical hyperalgesia as described in more detail below.

[2] = tested on: CFA-induced mechanical hyperalgesia; assay: CFA-induced mechanical hyperalgesia (Von Frey threshold); assay type: in vivo; conditions: injected into hindpaw 24 hours after CFA, mice
[3] = tested on: bradykinin (BK)-induced heat hyperalgesia; assay: Bradykinin-induced heat hyperalgesia; assay type: in vivo; conditions: mice
[4] = tested on: BK-induced nociceptive mechanical behaviours; assay: Bradykinin-induced mechanical hyperalgesia (Von Frey threshold); assay type: in vivo; conditions: short term hyperalgesia model, 1 mM coinjected, mice
TRPA1 [5] = biological target: T1, TRPA1 (Homo sapiens, UniProt O75762); assay: TRPA1 block, test not specified; conditions: summary statement
Target sequence in this assay (O75762 whole entry, species assumed): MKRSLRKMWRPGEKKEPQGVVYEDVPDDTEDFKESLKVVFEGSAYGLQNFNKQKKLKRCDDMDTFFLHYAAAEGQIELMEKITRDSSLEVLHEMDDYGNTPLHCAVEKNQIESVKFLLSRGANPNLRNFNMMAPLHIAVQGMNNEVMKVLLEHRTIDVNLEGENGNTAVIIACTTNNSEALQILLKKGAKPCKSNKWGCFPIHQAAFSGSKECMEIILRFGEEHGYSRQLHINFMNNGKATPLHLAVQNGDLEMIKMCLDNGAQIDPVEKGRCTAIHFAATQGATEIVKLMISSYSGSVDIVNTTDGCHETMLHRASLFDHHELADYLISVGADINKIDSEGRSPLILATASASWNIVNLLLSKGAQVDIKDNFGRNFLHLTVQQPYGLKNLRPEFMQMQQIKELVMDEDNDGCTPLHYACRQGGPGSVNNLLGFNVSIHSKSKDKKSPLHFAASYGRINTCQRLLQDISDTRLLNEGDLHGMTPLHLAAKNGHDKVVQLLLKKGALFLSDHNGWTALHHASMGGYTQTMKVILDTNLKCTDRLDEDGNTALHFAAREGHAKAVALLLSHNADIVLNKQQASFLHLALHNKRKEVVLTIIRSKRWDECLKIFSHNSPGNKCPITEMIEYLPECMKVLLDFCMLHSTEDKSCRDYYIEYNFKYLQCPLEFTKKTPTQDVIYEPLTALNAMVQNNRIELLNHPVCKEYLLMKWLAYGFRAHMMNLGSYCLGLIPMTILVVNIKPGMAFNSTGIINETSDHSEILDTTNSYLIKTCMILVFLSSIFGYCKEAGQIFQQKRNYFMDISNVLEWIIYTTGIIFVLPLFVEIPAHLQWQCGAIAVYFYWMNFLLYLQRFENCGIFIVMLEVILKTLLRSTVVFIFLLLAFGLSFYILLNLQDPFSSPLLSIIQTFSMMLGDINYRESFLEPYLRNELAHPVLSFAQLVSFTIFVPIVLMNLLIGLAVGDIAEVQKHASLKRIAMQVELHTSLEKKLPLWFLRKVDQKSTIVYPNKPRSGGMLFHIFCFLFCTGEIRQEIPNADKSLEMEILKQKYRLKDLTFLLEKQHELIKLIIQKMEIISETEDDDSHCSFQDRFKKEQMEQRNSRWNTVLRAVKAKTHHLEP

[6] = tested on: CFA-induced heat hyperalgesia; assay: CFA-induced heat hyperalgesia; assay type: in vivo; conditions: mice
mouse TRPA1 [7] = biological target: T2, mouse TRPA1 (Mus musculus, UniProt Q8BLA8); assay: FLIPR calcium-influx assay, block of cinnamaldehyde activation, CHO cells; assay type: cell-based
T2 construct: expressed in transfected cells; host or cells: CHO cells (tetracycline-induced for PatchXpress; mTRPA1-pcDNA5 named for the transient labelling experiment)
T2 sequence (Q8BLA8 whole entry): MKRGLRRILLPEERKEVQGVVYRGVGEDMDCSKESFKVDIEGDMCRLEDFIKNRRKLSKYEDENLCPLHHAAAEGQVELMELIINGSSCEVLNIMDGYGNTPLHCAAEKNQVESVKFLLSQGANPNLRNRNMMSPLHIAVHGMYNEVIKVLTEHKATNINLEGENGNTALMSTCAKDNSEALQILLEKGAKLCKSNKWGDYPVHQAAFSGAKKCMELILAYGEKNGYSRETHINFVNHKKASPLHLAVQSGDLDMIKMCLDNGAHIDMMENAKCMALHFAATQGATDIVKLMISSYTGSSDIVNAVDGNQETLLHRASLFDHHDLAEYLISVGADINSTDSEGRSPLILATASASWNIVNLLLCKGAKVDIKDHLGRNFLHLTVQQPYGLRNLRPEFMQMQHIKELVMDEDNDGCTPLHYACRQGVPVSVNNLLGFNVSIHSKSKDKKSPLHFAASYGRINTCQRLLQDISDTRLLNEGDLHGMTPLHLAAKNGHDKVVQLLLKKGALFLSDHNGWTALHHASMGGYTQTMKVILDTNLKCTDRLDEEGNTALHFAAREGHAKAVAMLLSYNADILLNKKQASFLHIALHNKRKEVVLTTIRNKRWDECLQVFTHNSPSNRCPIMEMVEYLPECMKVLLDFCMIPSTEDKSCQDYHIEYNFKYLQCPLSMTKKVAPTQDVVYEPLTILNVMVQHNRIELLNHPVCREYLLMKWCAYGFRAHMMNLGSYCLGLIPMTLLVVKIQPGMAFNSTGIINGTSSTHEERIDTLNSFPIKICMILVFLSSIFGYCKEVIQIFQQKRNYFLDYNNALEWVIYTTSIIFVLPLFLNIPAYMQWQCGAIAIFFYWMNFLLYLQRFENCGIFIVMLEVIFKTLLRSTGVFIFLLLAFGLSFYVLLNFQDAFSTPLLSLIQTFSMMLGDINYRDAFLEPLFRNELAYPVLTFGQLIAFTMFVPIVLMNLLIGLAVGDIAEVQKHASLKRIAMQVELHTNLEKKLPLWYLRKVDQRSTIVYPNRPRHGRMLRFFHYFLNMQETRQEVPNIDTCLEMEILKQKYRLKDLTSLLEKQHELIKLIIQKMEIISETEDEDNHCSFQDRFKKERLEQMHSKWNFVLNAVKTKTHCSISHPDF

TRPA1 [8] = biological target: T1, TRPA1; assay: PatchXpress whole cell patch clamp, cinnamaldehyde-elicited current, CHO cells; assay type: cell-based; set-up: expressed in transfected cells; host or cells: CHO cell line; conditions: 10 μM FM1-43 with 100 μM cinnamaldehyde, −80 mV
Method: (§1) FM1-43 experiments: The FM1-43 labeling of CHO cells transfected with mTRPA1 was performed as described (Meyers et al., J Neurosci 23:4054, 2003). Briefly, CHO cells were transfected using Fugene (Roche) with mTRPA1-pcDNA5. For mock transfection CHO cells were treated with Fugene, but without any plasmid DNA. 24 hrs after transfection the cells were incubated for 5 min with 200 μM cinnamaldehyde in physiological buffer (consisted of (in mM) 130 NaCl, 3 KCl, 2 MgCl2, 2 CaCl2, 10 HEPES, 10 glucose) at room temperature, followed by 3 min with 10 μM of FM1-43. The cells were then washed thoroughly and imaged. mTRPA1 and hTRPA1-expressing CHO cells were tested in whole cell patch clamp configuration using the PatchXpress (Axon Instruments) for the effect of the FM143 dye on TRPA1 activation. Cells were plated the day before testing and induced with 0.5 μg/ml tetracycline as previously described in Story et al., Cell 112:819, 2003. Immediately prior to testing, cells were trypsinized and resuspended in calcium-free DMEM media (Invitrogen). Recordings were performed in extracellular solution containing (in mM) 2.67 KCl, 1.47 KH2PO4, 0.5 MgCl2, 138 NaCl, 8 Na2HPO4, 5.6 glucose. The intracellular solution contained (in mM) 140 KCl, 10 HEPES, 20 glucose, 10 HEDTA and 1 μM buffered free Calcium. Holding currents at −80 mV were used for quantitative analysis of TRPA1 activation and inhibition. […]
Target sequence in this assay (O75762 whole entry): as the sequence (O75762 whole entry, species assumed) above

mTRPA1 = biological target: T3, mTRPA1 (Mus musculus, UniProt Q8BLA8); assay: as above; assay type: cell-based
T3 construct: expressed in transfected cells; host or cells: CHO cells (tetracycline-induced for PatchXpress; mTRPA1-pcDNA5 named for the transient labelling experiment)
T3 sequence (Q8BLA8 whole entry): as the sequence (Q8BLA8 whole entry) above
Excerpt: (§2) Mechanosensory neurons are often classified as high- or low-threshold, characterizing responses to pain and touch, respectively. We tested the mechanical threshold of TRPA1 by applying a wide range of negative pipette pressures (FIG. 1C). TRPA1-expressing CHO cells are activated at −90 mmHg or higher, consistent with native high-threshold mechanical receptors involved in sensing pain (Cho et al., J Neurosci 22:1238, 2002). […] Gadolinium (Gd^3+) is considered a blocker of native mechanically-gated ion channels in animal tissues (Martinac et al., Physiol Rev 81:685, 2001). […] FM1-43 is a styryl dye that specifically labels sensory cells by entering through open transduction channels. […] Furthermore, it was observed that 10 μM of FM1 -43 was able to block cinnamaldehyde-induced currents in TRPA1-expressing CHO cells (n=8).
as §1, with “Recordings were performed in extracellular solution containing (in mM) 2.67 KCl, 1.47 KH2PO4, 0.5 MgCl2, 138 NaCl, 8 Na2HPO4, 5.6 glucose. The intracellular solution contained (in mM) 140 KCl, 10 HEPES, 20 glucose, 10 HEDTA and 1 μM buffered free Calcium.” left out

mouse TRPA1 [9] = biological target: T2, mouse TRPA1; assay: Whole-cell electrophysiology of TRPA1-expressing CHO cells (pressure, hyperosmolarity, cold); assay type: cell-based; conditions: for block of TRPA1 currents in response to hyperosmolarity: bath application, 2 min stimulus
Excerpt: We tested if TRPA1 is activated by mechanical forces. The electrophysiological behavior of thermoTRP-expressing Chinese Hamster Ovary (CHO) cells was investigated with two different assays of mechanical stress—pressure application using the recording pipette and changes in external osmolarity.
as §2
(§3) To ensure that the mechanical response we observe is not an artifact of heterologous expression system, we tested if native TRPA1-expressing neurons also respond to such stimuli. 5/6 cinnamaldehyde-sensitive (presumptive TRPA1-expressing) DRG neurons responded to an application of −200 mmHg of suction, while 0/21 cinnamaldehyde insensitive neurons responded (16 of 21 were capsaicin-sensitive) (FIG. 2B). Millimolar camphor was recently reported to inhibit basal currents and cold or agonist-activation of TRPA1.
Mammalian cell electrophysiology: ThermoTRP-expressing CHO cells (rat TRPV1, rat TRPV2, mouse TRPV3, rat TRPV4, mouse TRPM8, and mouse TRPA1), control CHO cells, and cultured rat DRG neurons were prepared as described in Story et al., Cell 112:819, 2003; and Bandell et al., Neuron 41:849, 2004. Electrophysiological recordings were performed as described in Bandell et al., Neuron 41:849, 2004. Briefly, CHO cells were clamped at −60 mV and 0.8 second ramps from −80 mV to +80 mV were run every 4 seconds. Currents from DRG neurons were recorded at −60 mV and for their current-voltage curve, 300 ms voltage step at +20 mV was used 40 ms before 800 ms ramp from -80 mV to +80 mV to minimize contamination of voltage gated Na^+ or Ca^2+ current. The pipette solution for temperature and hyperosmotic experiments consisted of (in mM) 140 CsCl, 5 EGTA, 10 HEPES, 2 MgATP, 0.2 NaGTP, titrated to pH 7.4 with CsOH. The base external solution for these experiments consisted of (in mM) 140 NaCl, 5KCl, 10 HEPES, 2CaCl2, 1MgCl2, titrated to pH 7.4 with NaOH. Mannitol was used to adjust osmolarity for hypertonic solutions. For mouse TRPV3 and rat TRPV2, external calcium was replaced with 5 mM EGTA. Gluconate was substituted for chloride in (±)-pressure and hypotonic experiments to eliminate the potential for endogenous swelling-activated chloride currents. For these experiments, pipette solution (295 mOsm) consisted of (in mM) 125 Cs-gluconate, 15CsCl, 5 EGTA, 10 HEPES, 2 MgATP, 0.2NaGTP, titrated to pH 7.4 with CsOH. The external solution consisted of (in mM) 90 Na-gluconate, 10 NaCl, 5 K-gluconate, 10 HEPES, 2 CaCl2, 1 MgCl2, titrated to pH 7.4 with NaOH. Osmolarity was adjusted with mannitol to 220 mOsm (hypotonic) or 298 mOsm 15 (isotonic). (±)-Pressure was hydrostatically delivered by the recording pipette using syringe pumping (Hamill et al., Annu Rev Physiol 59:621, 1997) and monitored through Pressure Monitor (World Precision Instruments). Warner temperature controller (TC-324B and CL-100) was used for the heating or cooling the perfused bath solutions. […] The number of cells (n) tested with -100 mmHg to −300 mmHg, ˜+100 mmHg, 450 mOsm, and 220 mOsm for each cell type, respectively, are: CHO cells, n=7, 14, 5, 12; TRPV1, n=6, 5, 7, 5; TRPV2, n=4, 5, 3, 5; TRPV3, n=3, 2, 3, 0; TRPM8, n=12, 4, 10, 0. […]

cultured rat DRG neurons = assay: Current response of cultured DRG neurons to negative pressure; assay type: cell-based; conditions: 2 mM camphor, −150 mmHg
Excerpt: as §3
Mammalian cell electrophysiology: ThermoTRP-expressing CHO cells (rat TRPV1, rat TRPV2, mouse TRPV3, rat TRPV4, mouse TRPM8, and mouse TRPA1), control CHO cells, and cultured rat DRG neurons were prepared as described in Story et al., Cell 112:819, 2003; and Bandell et al., Neuron 41:849, 2004. Electrophysiological recordings were performed as described in Bandell et al., Neuron 41:849, 2004. […] Currents from DRG neurons were recorded at −60 mV and for their current-voltage curve, 300 ms voltage step at +20 mV was used 40 ms before 800 ms ramp from -80 mV to +80 mV to minimize contamination of voltage gated Na^+ or Ca^2+ current. […] (±)-Pressure was hydrostatically delivered by the recording pipette using syringe pumping (Hamill et al., Annu Rev Physiol 59:621, 1997) and monitored through Pressure Monitor (World Precision Instruments). […]

SMILES: CC(C)(CCC(C)(C)NCc1ccccc1O)NCc1ccccc1O [Compound 40, N,N′-Bis-(2-hydroxybenzyl)-2,5-diamino-2,5-dimethylhexane]
effect on activation or activities of the other thermoTRPs [1]: little or no effect
CFA-induced mechanical hyperalgesia [2]: very similar results
BK-induced heat hyperalgesia [3]: very similar results
BK-induced mechanical nociceptive behavior [4]: very similar results
inhibition of TRPA1 activation or function (TRPA1 [5]): specifically inhibit TRPA1 activation or function; also recorded: blocks TRPA1
CFA-induced heat hyperalgesia [6]: very similar results

SMILES: O=CC=Cc1ccccc1 [cinnamaldehyde]
pEC50 (mouse TRPA1 [7]; control (no compound 18)): 4.30
pEC50 (mouse TRPA1 [7]; with 25 μM compound 18): 3.66

SMILES: [Gd+3] [Gd3+, Gadolinium]
block of TRPA1 currents in response to negative pressure (mouse TRPA1 [9]; 10 μM Gd3+, -100 mmHg): completely and reversibly blocked
block of TRPA1 currents in response to hyperosmolarity (mouse TRPA1 [9]; 10 μM Gd3+, 450 mOsm): completely blocks
block of TRPA1 currents in response to hyperosmolarity (mouse TRPA1 [9]; 10 μM Gd3+, 450 mOsm, listed as Gd^3+): completely and reversibly blocked

Further lines, with some results ahead:

cells in which an inhibition of the current was observed (TRPA1 [8]): 3/4
block of cinnamaldehyde-induced currents in TRPA1-expressing CHO cells (mTRPA1; 10 μM FM1-43): able to block
cells in which an inhibition of the current was observed (mTRPA1; 10 μM FM1-43 with 100 μM cinnamaldehyde, −80 mV): 7/8
block in current, on average (mTRPA1; 10 μM FM1-43 with 100 μM cinnamaldehyde, average stated for mTRPA1 and hTRPA1 cells together): 50%
SMILES: CCCCN(CCCC)c1ccc(/C=C/c2cc[n+](CCC[N+](CC)(CC)CC)cc2)cc1.[Br-].[Br-] [FM1-43]

block of mechanosensitive TRPA1 currents upon hyperosmolarity (mouse TRPA1 [9]; 5 μM ruthenium red, 450 mOsm): completely blocked
block of mechanosensitive TRPA1 currents upon (−) pressure (mouse TRPA1 [9]; 5 μM ruthenium red, -100 mmHg): completely blocked
SMILES: N.N.N.N.N.N.N.N.N.N.N.N.N.N.[Cl-].[Cl-].[Cl-].[Cl-].[Cl-].[Cl-].[O-2].[O-2].[Ru+3].[Ru+3].[Ru+4] [ruthenium red]

block of current activation of TRPA1 upon (−) pressure in CHO cells (mouse TRPA1 [9]; 2 mM camphor, −100 mmHg): completely block
SMILES: CC12CCC(CC1=O)C2(C)C (stereo not shown) [camphor]
block of current response of DRG neurons to (−) pressure (cultured rat DRG neurons): completely blocks; also recorded: fully inhibited
